{
  "source": "paper PMC5218480",
  "about": "(PLoS ONE, 2017)",
  "system": "MV-4-11 cells",
  "assay": "Gene expression microarray analysis (Affymetrix PrimeView) and GSEA",
  "format": "cell-based, human",
  "design": "RFU PODN (11730768_x_at) / Fold change /veh PODN (11730768_x_at) / RFU LINC00158 (11744669_a_at) / Fold change /veh LINC00158 (11744669_a_at) / RFU DUSP10 (11751237_a_at) / Fold change /veh DUSP10 (11751237_a_at) / RFU ID3 (11757404_x_at) / Fold change /veh ID3 (11757404_x_at) / RFU PLEKHG5 (11737974_s_at) / Fold change /veh PLEKHG5 (11737974_s_at) / RFU LRRC4B (11730491_at) / Fold change /veh LRRC4B (11730491_at) / RFU GIMAP4 (11747438_a_at) / Fold change /veh GIMAP4 (11747438_a_at) / RFU KRT8 (11758183_x_at) / Fold change /veh KRT8 (11758183_x_at) / RFU CNN1 (11734310_a_at) / Fold change /veh CNN1 (11734310_a_at) / RFU VPS37D (11726825_at) / Fold change /veh VPS37D (11726825_at) / RFU C10orf10 (11716522_x_at) / Fold change /veh C10orf10 (11716522_x_at) / RFU KIR2DL2 /// KIR2DL4 /// KIR2DL5A /// KIR2DL5B /// KIR2DS1 /// KIR2DS2 /// KIR2DS3 /// KIR2DS4 /// KIR3DL3 /// KIR3DL3 /// KIR3DS1 (11738374_at) / Fold change /veh KIR2DL2 /// KIR2DL4 /// KIR2DL5A /// KIR2DL5B /// KIR2DS1 /// KIR2DS2 /// KIR2DS3 /// KIR2DS4 /// KIR3DL3 /// KIR3DL3 /// KIR3DS1 (11738374_at) / RFU C1QL1 (11718748_at) / Fold change /veh C1QL1 (11718748_at) / RFU TMPRSS4 (11747572_a_at) / Fold change /veh TMPRSS4 (11747572_a_at) / RFU HAMP (11756126_x_at) / Fold change /veh HAMP (11756126_x_at) / RFU RNFT2 (11725882_a_at) / Fold change /veh RNFT2 (11725882_a_at) / RFU NR4A2 (11747474_a_at) / Fold change /veh NR4A2 (11747474_a_at) / RFU ABCC12 (11746883_a_at) / Fold change /veh ABCC12 (11746883_a_at) / RFU TMEM136 (11760407_x_at) / Fold change /veh TMEM136 (11760407_x_at) / RFU CLDN22 /// WWC2 (11732394_at) / Fold change /veh CLDN22 /// WWC2 (11732394_at) / RFU HLA-DPB1 (11760878_x_at) / Fold change /veh HLA-DPB1 (11760878_x_at) / RFU SPINT1 (11716480_a_at) / Fold change /veh SPINT1 (11716480_a_at) / RFU GAP43 (11754022_s_at) / Fold change /veh GAP43 (11754022_s_at) / RFU A4GNT (11735810_at) / Fold change /veh A4GNT (11735810_at) / RFU PRB3 (11715151_x_at) / Fold change /veh PRB3 (11715151_x_at) / RFU TUBB4B (11761932_at) / Fold change /veh TUBB4B (11761932_at) / RFU CAPN14 (11732068_a_at) / Fold change /veh CAPN14 (11732068_a_at) / RFU TMCC2 (11721928_a_at) / Fold change /veh TMCC2 (11721928_a_at) / RFU IRGQ (11745062_a_at) / Fold change /veh IRGQ (11745062_a_at) / RFU FAM174B (11720279_a_at) / Fold change /veh FAM174B (11720279_a_at) / RFU TMPRSS4 (11748680_a_at) / Fold change /veh TMPRSS4 (11748680_a_at) / RFU FAM212B (11763350_a_at) / Fold change /veh FAM212B (11763350_a_at) / RFU PLEKHG5 (11743358_a_at) / Fold change /veh PLEKHG5 (11743358_a_at) / RFU ZSCAN30 (11745921_a_at) / Fold change /veh ZSCAN30 (11745921_a_at) / RFU CMKLR1 (11741424_a_at) / Fold change /veh CMKLR1 (11741424_a_at) / RFU LOC101060620 /// MAPK8IP1 (11723275_at) / Fold change /veh LOC101060620 /// MAPK8IP1 (11723275_at) / RFU SPTSSB (11747773_x_at) / Fold change /veh SPTSSB (11747773_x_at) / RFU PRSS12 (11739890_at) / Fold change /veh PRSS12 (11739890_at) / RFU BIN1 (11741810_x_at) / Fold change /veh BIN1 (11741810_x_at) / RFU WNT11 (11732464_a_at) / Fold change /veh WNT11 (11732464_a_at) / RFU C10orf10 (11716521_a_at) / Fold change /veh C10orf10 (11716521_a_at) / RFU C5orf56 (11738089_at) / Fold change /veh C5orf56 (11738089_at) / RFU CYB561 (11721691_x_at) / Fold change /veh CYB561 (11721691_x_at) / RFU ANKRD19P (11752326_a_at) / Fold change /veh ANKRD19P (11752326_a_at) / RFU OR2T12 /// OR2T33 /// OR2T8 (11738714_s_at) / Fold change /veh OR2T12 /// OR2T33 /// OR2T8 (11738714_s_at) / RFU VCAN (11748164_a_at) / Fold change /veh VCAN (11748164_a_at) / RFU JSRP1 (11732532_at) / Fold change /veh JSRP1 (11732532_at) / RFU KRTAP10-11 (11738290_x_at) / Fold change /veh KRTAP10-11 (11738290_x_at) / RFU MYO3A (11730013_a_at) / Fold change /veh MYO3A (11730013_a_at) / RFU EBF3 (11725865_a_at) / Fold change /veh EBF3 (11725865_a_at) / RFU CAMK2N1 (11719241_x_at) / Fold change /veh CAMK2N1 (11719241_x_at) / RFU C5orf56 (11738088_a_at) / Fold change /veh C5orf56 (11738088_a_at) / RFU OLFML3 (11715873_a_at) / Fold change /veh OLFML3 (11715873_a_at) / RFU LOC100653217 /// NTM (11731650_a_at) / Fold change /veh LOC100653217 /// NTM (11731650_a_at) / RFU MAPK11 (11762145_a_at) / Fold change /veh MAPK11 (11762145_a_at) / RFU FIZ1 (11724087_x_at) / Fold change /veh FIZ1 (11724087_x_at) / RFU OASL (11726364_x_at) / Fold change /veh OASL (11726364_x_at) / RFU SOX15 (11748057_x_at) / Fold change /veh SOX15 (11748057_x_at) / RFU CD79A (11719716_a_at) / Fold change /veh CD79A (11719716_a_at) / RFU HIST1H1D (11736915_at) / Fold change /veh HIST1H1D (11736915_at) / RFU CASKIN2 (11723855_a_at) / Fold change /veh CASKIN2 (11723855_a_at) / RFU LOC730098 (11760151_x_at) / Fold change /veh LOC730098 (11760151_x_at) / RFU OR4N2 (11742367_at) / Fold change /veh OR4N2 (11742367_at) / RFU PRRT2 (11749266_a_at) / Fold change /veh PRRT2 (11749266_a_at) / RFU SNX32 (11753110_a_at) / Fold change /veh SNX32 (11753110_a_at) / RFU CDHR5 (11726645_a_at) / Fold change /veh CDHR5 (11726645_a_at) / RFU RCAN1 (11760418_a_at) / Fold change /veh RCAN1 (11760418_a_at) / RFU FAM167A (11723789_a_at) / Fold change /veh FAM167A (11723789_a_at) / RFU FAM26E (11764081_at) / Fold change /veh FAM26E (11764081_at) / RFU ISYNA1 (11749810_s_at) / Fold change /veh ISYNA1 (11749810_s_at) / RFU ACY1 (11761880_at) / Fold change /veh ACY1 (11761880_at) / RFU 11764098_at / Fold change /veh 11764098_at / RFU SAMD14 (11745864_x_at) / Fold change /veh SAMD14 (11745864_x_at) / RFU NPB (11741838_a_at) / Fold change /veh NPB (11741838_a_at) / RFU TMPRSS6 (11731388_a_at) / Fold change /veh TMPRSS6 (11731388_a_at) / RFU KRTAP10-2 (11738614_at) / Fold change /veh KRTAP10-2 (11738614_at) / RFU ARHGAP8 /// PRR5-ARHGAP8 (11727945_x_at) / Fold change /veh ARHGAP8 /// PRR5-ARHGAP8 (11727945_x_at) / RFU KRTAP5-7 /// NADSYN1 (11734609_at) / Fold change /veh KRTAP5-7 /// NADSYN1 (11734609_at) / RFU RASL12 (11751679_a_at) / Fold change /veh RASL12 (11751679_a_at) / RFU CDKN2B (11736163_a_at) / Fold change /veh CDKN2B (11736163_a_at) / RFU PRF1 (11729649_at) / Fold change /veh PRF1 (11729649_at) / RFU, ZNF638 /// ZNF638-IT1 / Fold change vs veh, ZNF638 /// ZNF638-IT1 / RFU, PANK3 / Fold change vs veh, PANK3 / RFU, SH3YL1 / Fold change vs veh, SH3YL1 / RFU, ZEB2 / Fold change vs veh, ZEB2 / RFU, NRIP1 / Fold change vs veh, NRIP1 / RFU, PTTG1IP / Fold change vs veh, PTTG1IP / RFU, CAPN2 / Fold change vs veh, CAPN2 / RFU, MED14 / Fold change vs veh, MED14 / RFU, SNORA58 / Fold change vs veh, SNORA58 / RFU, C1orf63 / Fold change vs veh, C1orf63 / RFU, LRRFIP1 / Fold change vs veh, LRRFIP1 / RFU, NDUFAF7 / Fold change vs veh, NDUFAF7 / RFU, SLC12A2 / Fold change vs veh, SLC12A2 / RFU, IBTK / Fold change vs veh, IBTK / RFU, ESF1 / Fold change vs veh, ESF1 / Fold change vs veh, TMEM50B / RFU, TAOK1 / Fold change vs veh, TAOK1 / RFU, ACBD3 / Fold change vs veh, ACBD3 / RFU, TMA16 / Fold change vs veh, TMA16 / RFU, RWDD3 / Fold change vs veh, RWDD3 / RFU, BCAT1 / Fold change vs veh, BCAT1 / RFU, EDEM3 / Fold change vs veh, EDEM3 / RFU, TMEM33 / Fold change vs veh, TMEM33 / RFU, WDR75 / Fold change vs veh, WDR75 / RFU, AHCTF1 / Fold change vs veh, AHCTF1 / RFU, TFRC / Fold change vs veh, TFRC / RFU, ZDHHC17 / Fold change vs veh, ZDHHC17 / RFU, NOM1 / Fold change vs veh, NOM1 / RFU, ARL8B / Fold change vs veh, ARL8B / RFU, ZBTB11 / Fold change vs veh, ZBTB11 / RFU, TAMM41 / Fold change vs veh, TAMM41 / RFU, KIAA1704 /// LOC100996395 / Fold change vs veh, KIAA1704 /// LOC100996395 / RFU, ING1 / Fold change vs veh, ING1 / RFU, TRMT61B / Fold change vs veh, TRMT61B / RFU, FUBP3 / Fold change vs veh, FUBP3 / RFU, TP53 / Fold change vs veh, TP53 / RFU, TNKS2 / Fold change vs veh, TNKS2 / RFU, ZFP14 / Fold change vs veh, ZFP14 / RFU, ACTR2 / Fold change vs veh, ACTR2 / RFU, PPP3R1 / Fold change vs veh, PPP3R1 / RFU, PIK3R1 / Fold change vs veh, PIK3R1 / RFU, HNRNPA1 / Fold change vs veh, HNRNPA1 / RFU, RNF170 / Fold change vs veh, RNF170 / RFU, ZNF28 / Fold change vs veh, ZNF28 / RFU, RNGTT / Fold change vs veh, RNGTT / RFU, OGT / Fold change vs veh, OGT / RFU, BRD1 / Fold change vs veh, BRD1 / RFU, MARS / Fold change vs veh, MARS / RFU, ZNF655 / Fold change vs veh, ZNF655 / RFU, FAHD1 / Fold change vs veh, FAHD1 / RFU, BDP1 / Fold change vs veh, BDP1 / RFU, LRRCC1 / Fold change vs veh, LRRCC1 / RFU, ARID1A / Fold change vs veh, ARID1A / RFU, ZNF146 / Fold change vs veh, ZNF146 / RFU, ZNF330 / Fold change vs veh, ZNF330 / RFU, GPN3 / Fold change vs veh, GPN3 / RFU, C9orf123 / Fold change vs veh, C9orf123 / RFU, N4BP2L2 / Fold change vs veh, N4BP2L2 / RFU, ARFIP1 / Fold change vs veh, ARFIP1 / RFU, FAM179B / Fold change vs veh, FAM179B / RFU, BCL10 / Fold change vs veh, BCL10 / RFU, UHRF1BP1L / Fold change vs veh, UHRF1BP1L / RFU, BET1 / Fold change vs veh, BET1 / RFU, CNOT2 / Fold change vs veh, CNOT2 / RFU, ZNF268 / Fold change vs veh, ZNF268 / Fold change vs veh, ZNF507 / RFU, DGCR2 / Fold change vs veh, DGCR2 / RFU, WDSUB1 / Fold change vs veh, WDSUB1 / Fold change vs veh, HSP90B1 /// MIR3652 / RFU, ADSS / Fold change vs veh, ADSS / RFU, GK / Fold change vs veh, GK / RFU, ZNF148 / Fold change vs veh, ZNF148 / RFU, TAF9 / Fold change vs veh, TAF9 / RFU, SLC1A5 / Fold change vs veh, SLC1A5 / RFU, SLMO2 / Fold change vs veh, SLMO2 / RFU, ABCC4 / Fold change vs veh, ABCC4 / RFU, LOC101060439 /// RAP1B / Fold change vs veh, LOC101060439 /// RAP1B / RFU, RFX7 / Fold change vs veh, RFX7 / RFU, GTPBP10 / Fold change vs veh, GTPBP10 / RFU, CNEP1R1 / Fold change vs veh, CNEP1R1 / RFU, BIVM-ERCC5 /// ERCC5 / Fold change vs veh, BIVM-ERCC5 /// ERCC5 / RFU, ILF3 / Fold change vs veh, ILF3 / RFU 11762660_at / Fold change /veh 11762660_at / RFU VCAN (11757783_s_at) / Fold change /veh VCAN (11757783_s_at) / RFU DDX43 (11728927_at) / Fold change /veh DDX43 (11728927_at) / RFU KRT8 (11758188_x_at) / Fold change /veh KRT8 (11758188_x_at) / RFU NKD1 (11759106_at) / Fold change /veh NKD1 (11759106_at) / RFU SRD5A1 (11742802_a_at) / Fold change /veh SRD5A1 (11742802_a_at) / RFU TPSAB1 /// TPSB2 (11721975_s_at) / Fold change /veh TPSAB1 /// TPSB2 (11721975_s_at) / RFU GSTM3 (11746129_a_at) / Fold change /veh GSTM3 (11746129_a_at) / RFU IL23R (11737362_x_at) / Fold change /veh IL23R (11737362_x_at) / RFU TMEM51 (11727254_a_at) / Fold change /veh TMEM51 (11727254_a_at) / RFU PIWIL2 (11732686_x_at) / Fold change /veh PIWIL2 (11732686_x_at) / RFU ORM1 (11744905_x_at) / Fold change /veh ORM1 (11744905_x_at) / RFU CCDC152 (11743942_at) / Fold change /veh CCDC152 (11743942_at) / RFU ECM1 (11717891_a_at) / Fold change /veh ECM1 (11717891_a_at) / RFU IL23R (11748794_a_at) / Fold change /veh IL23R (11748794_a_at) / RFU TNFAIP8L3 (11732012_x_at) / Fold change /veh TNFAIP8L3 (11732012_x_at) / RFU MBOAT4 (11741988_at) / Fold change /veh MBOAT4 (11741988_at) / RFU 11764193_at / Fold change /veh 11764193_at / RFU TMEM53 (11763286_at) / Fold change /veh TMEM53 (11763286_at) / RFU MAGEB2 (11727129_at) / Fold change /veh MAGEB2 (11727129_at) / RFU TMEM200A (11744735_a_at) / Fold change /veh TMEM200A (11744735_a_at) / RFU CCDC152 (11751479_a_at) / Fold change /veh CCDC152 (11751479_a_at) / RFU FAM211A (11726209_a_at) / Fold change /veh FAM211A (11726209_a_at) / RFU RGS16 (11746705_a_at) / Fold change /veh RGS16 (11746705_a_at) / RFU VCAN (11755009_s_at) / Fold change /veh VCAN (11755009_s_at) / RFU RHOB (11743442_s_at) / Fold change /veh RHOB (11743442_s_at) / RFU RGS16 (11720943_a_at) / Fold change /veh RGS16 (11720943_a_at) / RFU RGS16 (11720944_at) / Fold change /veh RGS16 (11720944_at) / RFU, VPS4B / Fold change vs veh, VPS4B / RFU, CREB1 / Fold change vs veh, CREB1 / RFU, DNAJC13 / Fold change vs veh, DNAJC13 / RFU, GNAQ / Fold change vs veh, GNAQ / RFU, CDK5R1 / Fold change vs veh, CDK5R1 / RFU, ZRANB3 / Fold change vs veh, ZRANB3 / RFU, CUL4A / Fold change vs veh, CUL4A / RFU, CCNY / Fold change vs veh, CCNY / RFU, UFL1 / Fold change vs veh, UFL1 / RFU, COG3 / Fold change vs veh, COG3 / RFU, DIAPH2 / Fold change vs veh, DIAPH2 / RFU, SKA2 / Fold change vs veh, SKA2 / RFU, AFF3 / Fold change vs veh, AFF3 / RFU, LMF1 / Fold change vs veh, LMF1 / RFU, IPO11 / Fold change vs veh, IPO11 / RFU, DFFB / Fold change vs veh, DFFB / RFU, FOXP1 / Fold change vs veh, FOXP1 / RFU, CARD8 / Fold change vs veh, CARD8 / RFU, STRN3 / Fold change vs veh, STRN3 / RFU, ADK / Fold change vs veh, ADK / RFU, RASSF2 / Fold change vs veh, RASSF2 / RFU, WIPF1 / Fold change vs veh, WIPF1 / RFU, LARP1B / Fold change vs veh, LARP1B / RFU, RASA1 / Fold change vs veh, RASA1 / RFU, RB1 / Fold change vs veh, RB1 / RFU, PPFIA1 / Fold change vs veh, PPFIA1 / RFU, MAT2A / Fold change vs veh, MAT2A / RFU, CCT5 / Fold change vs veh, CCT5 / RFU, WDR92 / Fold change vs veh, WDR92 / RFU, CUX1 / Fold change vs veh, CUX1 / RFU, TTC7A / Fold change vs veh, TTC7A / RFU, TMEM135 / Fold change vs veh, TMEM135 / RFU, DEPTOR / Fold change vs veh, DEPTOR / RFU, CPM / Fold change vs veh, CPM / RFU, DNAJB6 / Fold change vs veh, DNAJB6 / RFU, CACNA2D3 / Fold change vs veh, CACNA2D3 / RFU, DTX4 / Fold change vs veh, DTX4 / RFU, TFCP2 / Fold change vs veh, TFCP2 / RFU, GMCL1 /// GMCL1P1 / Fold change vs veh, GMCL1 /// GMCL1P1 / RFU, AEBP2 / Fold change vs veh, AEBP2 / RFU, SNHG1 /// SNORD22 /// SNORD25 /// SNORD26 /// SNORD27 /// SNORD28 /// SNORD29 /// SNORD31 / Fold change vs veh, SNHG1 /// SNORD22 /// SNORD25 /// SNORD26 /// SNORD27 /// SNORD28 /// SNORD29 /// SNORD31 / Fold change (Aza/veh), C12orf56 (ProbeSet 11735607_a_at) / Fold change (ACY-1035/veh), C12orf56 (ProbeSet 11735607_a_at) / Fold change (Aza/veh), FGFR1OP (ProbeSet 11751329_s_at) / Fold change (ACY-1035/veh), FGFR1OP (ProbeSet 11751329_s_at) / Fold change (Aza/veh), VPS36 (ProbeSet 11739960_a_at) / Fold change (ACY-1035/veh), VPS36 (ProbeSet 11739960_a_at) / RFU SYPL1 (11715823_x_at) / Fold change /veh SYPL1 (11715823_x_at) / RFU IGFBP7 (11715501_s_at) / Fold change /veh IGFBP7 (11715501_s_at) / RFU REEP3 (11722064_at) / Fold change /veh REEP3 (11722064_at) / RFU IGLL1 (11728026_x_at) / Fold change /veh IGLL1 (11728026_x_at): dose or concentration left out as unconfirmed",
  "details": "MV-4-11 cells, 48 hours",
  "data": [
    {"compound": "Nc1ncn([C@@H]2O[C@H](CO)[C@@H](O)[C@H]2O)c(=O)n1", "note": "[azacitidine]", "values": [
      {"measurement": "RFU KRTAP10-2 (11738614_at)", "value": 10.93, "unit": "RFU"}
    ]}
  ]
}
